In brackets after ≈: the same amount, converted by molar mass.
Columns and labels:
[1] = Half life in human; assay type: ADME
[2] = Aqueous solubility of compound in pH 7.4; assay type: physicochemical
[3] = Protein binding in human plasma; assay type: ADME, cell-free; details: read-out: PPB (converted)
[4] = Octanol/water partition co-efficient, log P of compound at pH 7.4; assay type: physicochemical

Work on `COCCCOc1cc(C[C@@H](C[C@H](N)[C@@H](O)C[C@H](C(=O)NCC(C)(C)C(N)=O)C(C)C)C(C)C)ccc1OC` yielded a half-life [1] of 24 h, a solubility [2] of 350 mg/mL (≈ 634 mM) and a fraction unbound [3] of 0.505. For the same compound, the logD [4] was 2.45.

From ChEMBL document CHEMBL4627361, “Decades-old renin inhibitors are still struggling to find a niche in antihypertensive therapy. A fleeting look at the old and the promising new molecules” (Bioorg Med Chem, 2020)
